Source: patent EP4745153A1, “GLP-1, GIP AND GCG RECEPTOR […] USE THEREOF” (Jiangsu Hengrui Pharmaceuticals Co., Ltd., priority 2023, dated 2025)
Like-named read-outs stand apart in the source and are kept apart here. Starred links: 1 amine or outer side, 2 acyl side, 3 side chain; linkers in the order of their positions; H or OH if unused. Non-standard residues stand in square brackets, D forms with d. Residues, ends and D or L forms follow the SMILES beside them. Groups on a side chain read outwards from the residue. ξ: configuration not given here. *: point of attachment. C20 diacid = O=C(O)CCCCCCCCCCCCCCCCCCC(=O)*; γGlu = O=C(O)[C@H](CCC(=O)[*:2])N[*:1]; αMeK = C[C@](N)(CCCCN)C(=O)O; ξIva = CCC(C)(N)C(=O)O; AEEA = NCCOCCOCC(=O)O; Aib = CC(C)(N)C(=O)O

Legend:
[1] = Pharmacokinetics in mice after single intravenous injection; design: species or system C57 mice; conditions: in vivo
Method: Male C57 mice were used as test animals. The target compound was administered via a single intravenous injection, and the pharmacokinetic characteristics of the compound in C57 mice in vivo (plasma) were determined.
Male C57 mice, weighing approximately 25g, aged 4-6 weeks. After preparing the polypeptide compound solution using 1×PBS dissolving solution, the compound was administered intravenously at a dose of 200 nmol/kg, where each compound was administered to 3 animals. Blood samples of 60 µL were collected at 5 min, 15 min, 0.5 h, 1 h, 2 h, 4 h, 6 h, 24 h, 48 h and 72 h after the infusion was completed and transferred to centrifuge tubes containing EDTA-K2 anticoagulant. Whole blood samples were centrifuged at 4000 g for 5 min at 4°C. Plasma was separated and plasma samples were frozen and stored at -80 °C.
Sample pretreatment method: 30 µL of plasma samples was taken, and 120 µL of 0.1% formic acid in methanol containing 1 ng/mL internal standard verapamil was added. The mixture was vortexed for 5 min, and centrifuged at 10000 rpm for 10 min at low temperature. 70 µL of supernatant was taken, and 70 µL of water was added and mixed well. Analysis was performed by LC-MS instrument.
LC-MS analysis method: (1) chromatographic conditions: mobile phases A and B: 0.1% formic acid in water and 0.1% formic acid in acetonitrile, respectively; gradient elution mode; flow rate: 0.5 mL/min; injection volume: 10 µL; chromatographic column: nanomicro Unisil C18aq (4.6 mm × 150 mm, 5 µm); column temperature: 40°C. (2) Mass spectrometry conditions: For mass spectrometry, an electrospray ionization source (ESI), positive ion analysis mode, and multiple reaction monitoring (MRM) scanning mode were used.
For data processing, SCIEX OS (Version 2.1.6) software was used to quantify blood drug concentration data and PKSolver (Version 2.0) software was used to calculate pharmacokinetic parameters.

human GIPR = target: T1, human GIPR (Homo sapiens, UniProt P48546); assay: cAMP HTRF agonist activity assay in CHO-K1 cells expressing GIPR; type: cell-based; conditions: read-out: Activity against human GIPR (EC50 nM); also: 5% FBS, 0.1% Casein
T1 construct: expressed in transfected cells; host or cells: CHO-K1 clonal cell line
T1 sequence (P48546 22-466): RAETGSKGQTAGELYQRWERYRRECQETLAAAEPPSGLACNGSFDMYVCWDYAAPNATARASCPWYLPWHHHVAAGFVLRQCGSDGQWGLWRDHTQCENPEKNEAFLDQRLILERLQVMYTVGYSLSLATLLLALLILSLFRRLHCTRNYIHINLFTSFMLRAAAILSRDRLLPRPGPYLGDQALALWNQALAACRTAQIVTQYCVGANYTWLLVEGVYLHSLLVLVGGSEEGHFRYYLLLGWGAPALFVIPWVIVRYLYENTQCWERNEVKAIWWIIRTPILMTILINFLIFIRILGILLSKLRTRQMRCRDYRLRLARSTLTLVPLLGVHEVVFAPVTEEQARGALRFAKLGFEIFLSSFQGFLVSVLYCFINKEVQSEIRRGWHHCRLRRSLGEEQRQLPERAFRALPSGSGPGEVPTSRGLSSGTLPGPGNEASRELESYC
Method: Functional activity was determined in CHO-K1 clonal cell lines expressing GIPR, GLP-1R, and GCGR. […] Each recipient cell (5000 cells/well) was added to an SV 96-well plate (Cisbio, 66PL96025) and incubated with the prepared polypeptide at 37°Cfor 30 min. The resulting increase in intracellular cAMP was quantitatively measured using the cAMP-GS dynamic HTRF assay kit (Cisbio, 62AM4PEJ). Briefly, the intracellular cAMP levels were determined by adding cAMP-d2 conjugate in cell lysis buffer, followed by the antibody anti-cAMP-Eu cryptate (also in cell lysis buffer).
Using the maximum response percentage vs. the added polypeptide concentration, the relative EC50 values were derived through nonlinear regression analysis and fitted to a four-parameter logarithmic equation. For specific data, refer to Tables 7-1 to 7-8 below. […]

[2] = mouse, male C57 mice, single intravenous dose 200 nmol/kg, plasma

**Q.** What does the source list for `CC[C@H](C)[C@H](NC(=O)[C@H](CO)NC(=O)[C@H](CC(C)C)NC(=O)[C@H](CC(=O)O)NC(=O)[C@H](CO)NC(=O)[C@@H](NC(=O)[C@H](Cc1ccccc1)NC(=O)[C@@H](NC(=O)CNC(=O)[C@H](Cc1c[nH]cn1)NC(=O)C(C)(C)NC(=O)[C@@H](N)Cc1c[nH]cn1)[C@@H](C)O)[C@@H](C)O)C(=O)N[C@@](C)(CC(C)C)C(=O)N[C@@H](CC(C)C)C(=O)N[C@@H](CCC(=O)O)C(=O)N[C@@H](CCCCNC(=O)COCCOCCNC(=O)COCCOCCNC(=O)CC[C@H](NC(=O)CCCCCCCCCCCCCCCCCCC(=O)O)C(=O)O)C(=O)N[C@@H](CCCCN)C(=O)N[C@@H](C)C(=O)N[C@@H](C)C(=O)NC1(C(=O)N[C@@H](CCC(=O)O)C(=O)N[C@@H](Cc2ccccc2)C(=O)N[C@H](C(=O)N[C@@H](CCC(=O)O)C(=O)N[C@@H](Cc2c[nH]c3ccccc23)C(=O)N[C@@H](CC(C)C)C(=O)N[C@@H](CC(C)C)C(=O)N[C@@H](C)C(=O)NCC(=O)NCC(=O)N2CCC[C@H]2C(=O)N[C@@H](CO)C(=O)N[C@@H](CO)C(=O)NCC(=O)N[C@@H](C)C(=O)N2CCC[C@H]2C(=O)N2CCC[C@H]2C(=O)N2CCC[C@H]2C(=O)N[C@@H](CO)C(N)=O)C(C)C)CCC1` [Compound 0140]?
**A.** clearance ([1]; male, C57, mouse, iv): 0.115 mL/min/kg; half-life ([1]; male, C57, mouse, iv): 9.3 h

**Q.** Which EC50 (human GIPR) does the source give for `CC[C@H](C)[C@H](NC(=O)[C@H](CO)NC(=O)[C@H](Cc1ccc(O)cc1)NC(=O)[C@H](CC(=O)O)NC(=O)[C@H](CO)NC(=O)[C@@H](NC(=O)[C@H](Cc1ccccc1)NC(=O)[C@@H](NC(=O)CNC(=O)[C@H](Cc1c[nH]cn1)NC(=O)C(C)(C)NC(=O)[C@@H](N)Cc1c[nH]cn1)[C@@H](C)O)[C@@H](C)O)C(=O)N[C@@H](CC(C)C)C(=O)N[C@@H](CC(C)C)C(=O)N[C@@H](CCC(=O)O)C(=O)N[C@@H](CCCCNC(=O)COCCOCCNC(=O)COCCOCCNC(=O)CC[C@H](NC(=O)CCCCCCCCCCCCCCCCCCC(=O)O)C(=O)O)C(=O)N[C@@H](CCC(N)=O)C(=O)N[C@@H](C)C(=O)N[C@@H](C)C(=O)N[C@@H](CCC(N)=O)C(=O)N[C@@H](CCC(=O)O)C(=O)N[C@@H](Cc1ccccc1)C(=O)N[C@H](C(=O)N[C@@H](CCC(=O)O)C(=O)N[C@@H](Cc1c[nH]c2ccccc12)C(=O)N[C@@H](CC(C)C)C(=O)N[C@@H](CC(C)C)C(=O)N[C@@H](C)C(=O)N[C@H](CCC(=O)O)C(=O)NCC(=O)N1CCC[C@H]1C(=O)N[C@@H](CO)C(=O)N[C@@H](CO)C(=O)NCC(=O)N[C@@H](C)C(=O)N1CCC[C@H]1C(=O)N1CCC[C@H]1C(=O)N1CCC[C@H]1C(=O)N[C@@H](CO)C(N)=O)C(C)C` [Compound 0153] here?
**A.** Its EC50 is 0.01 nM.

**Q.** With `CC[C@H](C)[C@H](NC(=O)[C@H](CO)NC(=O)[C@H](Cc1ccc(O)cc1)NC(=O)[C@H](CC(=O)O)NC(=O)[C@H](CO)NC(=O)[C@@H](NC(=O)[C@H](Cc1ccccc1)NC(=O)[C@@H](NC(=O)CNC(=O)[C@H](Cc1c[nH]cn1)NC(=O)C(C)(C)NC(=O)[C@@H](N)Cc1c[nH]cn1)[C@@H](C)O)[C@@H](C)O)C(=O)N[C@@H](CC(C)C)C(=O)N[C@@H](CC(C)C)C(=O)N[C@@H](CCC(=O)O)C(=O)N[C@@H](CCCCNC(=O)COCCOCCNC(=O)COCCOCCNC(=O)CC[C@H](NC(=O)CCCCCCCCCCCCCCCCCCC(=O)O)C(=O)O)C(=O)N[C@@H](CCC(N)=O)C(=O)N[C@@H](C)C(=O)N[C@@H](C)C(=O)N[C@@H](CCC(N)=O)C(=O)N[C@@H](CCC(=O)O)C(=O)N[C@@H](Cc1ccccc1)C(=O)N[C@H](C(=O)N[C@@H](CCC(=O)O)C(=O)N[C@@H](Cc1c[nH]c2ccccc12)C(=O)N[C@@H](CC(C)C)C(=O)N[C@@H](CC(C)C)C(=O)N[C@@H](C)C(=O)NCC(=O)NCC(=O)N1CCC[C@H]1C(=O)N[C@@H](CO)C(=O)N[C@@H](CO)C(=O)NCC(=O)N[C@@H](C)C(=O)N1CCC[C@H]1C(=O)N1CCC[C@H]1C(=O)N1CCC[C@H]1C(=O)N[C@@H](CO)C(N)=O)C(C)C` [Compound 0152] (H-H[Aib]HGTFTSDYSILLEK([AEEA-AEEA-γGlu-C20 diacid])QAAQEFVEWLLAGGPSSGAPPPS-NH2) as the compound, how does the EC50 (human GIPR) read?
**A.** The EC50 was 0.009 nM.

**Q.** For `CC[C@H](C)[C@H](NC(=O)[C@](C)(CCCCN)NC(=O)[C@H](CO)NC(=O)[C@H](Cc1ccc(O)cc1)NC(=O)[C@H](CC(=O)O)NC(=O)[C@H](CO)NC(=O)[C@@H](NC(=O)[C@H](Cc1ccccc1)NC(=O)[C@@H](NC(=O)CNC(=O)[C@H](CCC(N)=O)NC(=O)C(C)(C)NC(=O)[C@@H](N)Cc1ccc(O)cc1)[C@@H](C)O)[C@@H](C)O)C(=O)N[C@@H](CC(C)C)C(=O)N[C@@H](CCC(=O)O)C(=O)N[C@@H](CCCCNC(=O)COCCOCCNC(=O)COCCOCCNC(=O)CC[C@H](NC(=O)CCCCCCCCCCCCCCCCCCC(=O)O)C(=O)O)C(=O)N[C@@H](CCCCN)C(=O)N[C@@H](C)C(=O)N[C@@H](C)C(=O)NC(C)(CC)C(=O)N[C@@H](CCC(=O)O)C(=O)N[C@@H](Cc1ccccc1)C(=O)N[C@H](C(=O)N[C@@H](CCC(=O)O)C(=O)N[C@@H](Cc1c[nH]c2ccccc12)C(=O)N[C@@H](CC(C)C)C(=O)N[C@@H](CC(C)C)C(=O)N[C@@H](C)C(=O)NCC(=O)NCC(=O)N1CCC[C@H]1C(=O)N[C@@H](CO)C(=O)N[C@@H](CO)C(=O)NCC(=O)N[C@@H](C)C(=O)N1CCC[C@H]1C(=O)N1CCC[C@H]1C(=O)N1CCC[C@H]1C(=O)N[C@@H](CO)C(N)=O)C(C)C` (stereo partly drawn) [Compound 0129] (H-Y[Aib]QGTFTSDYS[αMeK]ILEK([AEEA-AEEA-γGlu-C20 diacid])KAA[ξIva]EFVEWLLAGGPSSGAPPPS-NH2), which EC50 (human GIPR) is on record?
**A.** The EC50 was 0.002 nM.

**Q.** For `CC[C@H](C)[C@H](NC(=O)[C@H](CC(C)C)NC(=O)[C@H](Cc1c[nH]c2ccccc12)NC(=O)[C@H](CCC(=O)O)NC(=O)[C@@H](NC(=O)[C@H](Cc1ccccc1)NC(=O)[C@H](CCC(=O)O)NC(=O)C(C)(CC)NC(=O)[C@H](C)NC(=O)[C@H](C)NC(=O)[C@H](CCCCN)NC(=O)[C@H](CCCCNC(=O)COCCOCCNC(=O)COCCOCCNC(=O)CC[C@H](NC(=O)CCCCCCCCCCCCCCCCCCC(=O)O)C(=O)O)NC(=O)[C@H](CCC(=O)O)NC(=O)[C@H](CC(C)C)NC(=O)[C@H](CC(C)C)NC(=O)[C@](C)(CCCCN)NC(=O)[C@H](CO)NC(=O)[C@H](Cc1ccc(O)cc1)NC(=O)[C@H](CC(=O)O)NC(=O)[C@H](CO)NC(=O)[C@@H](NC(=O)[C@H](Cc1ccccc1)NC(=O)[C@@H](NC(=O)CNC(=O)[C@H](Cc1c[nH]cn1)NC(=O)C(C)(C)NC(=O)[C@@H](N)Cc1c[nH]cn1)[C@@H](C)O)[C@@H](C)O)C(C)C)C(=O)N[C@@H](CCC(=O)O)C(=O)NCC(=O)NCC(=O)N1CCC[C@H]1C(=O)N[C@@H](CO)C(=O)N[C@@H](CO)C(=O)NCC(=O)N[C@@H](C)C(=O)N1CCC[C@H]1C(=O)N1CCC[C@H]1C(=O)N1CCC[C@H]1C(=O)N[C@@H](CO)C(N)=O` (stereo partly drawn) [Compound 0131] (H-H[Aib]HGTFTSDYS[αMeK]LLEK([AEEA-AEEA-γGlu-C20 diacid])KAA[ξIva]EFVEWLIEGGPSSGAPPPS-NH2), which AUC(0-inf) [1, 2] is on record?
**A.** The AUC(0-inf) was 22.5 µM·h.

**Q.** And the C0 [1, 2]?
**A.** The C0 was 5.98 µM.

**Q.** And the clearance ([1]; mouse, male C57 mice, single intravenous dose 200 nmol/kg, plasma, read-out: CLp)?
**A.** The clearance was 0.148 mL/min/kg.

**Q.** What about the half-life ([1]; mouse, male C57 mice, single intravenous dose 200 nmol/kg, plasma, read-out: T1/2 (converted)) of the same compound?
**A.** Its half-life is 10.2 h.
